Consider three compounds from patent EP3495372B1 (priority 2017, dated 2019).

The test system of series [1] is cultured human blood cells. Kind of series: Nucleic acid oxidation, 8-hydroxy-2'-deoxyguanosine assay. The series is classed as cell-based. The source says: (§1) All volunteers have signed informed consent.
Nucleic acid oxidation: 8-hydroxy-2'-deoxyguanosine assay kits (Cayman Chemical®) was used for determining 8- OH-dG levels in the cultures. It is a competitive assay that can be used for the quantification of 8-OHdG in homogenates and recognizes both free 8-OHdG and DNA-incorporated 8-OH-dG. This assay depends on the competition between 8-OH-dG and 8-OH-dGacetylcholinesterase (AChE) conjugate for a limited amount of 8-OH-dG monoclonal antibody (Abdel-Wahab BA, Metwally ME. Ginkgo biloba enhances the anticonvulsant and neuroprotective effects of sodium valproate against kainic acid-induced seizures in mice. J Pharmacol Toxicol. 2011; 6:679-690). All procedures were carried out in accordance with the provider's manual.
The levels of 8-OH-dG, a sensitive marker of oxidative DNA damage, were quantified about mitomycin (MMC) treatment. […] On the contrary, 8-OH-dG levels were not increased in the blood cells that were treated with BLA, MEM, and LA concentrations.

The test system of series [2] is human neuron-like cells. Kind of series: Apoptosis-Necrosis assay (Annexin V-FITC/PI flow cytometry). The series is classed as cell-based. To be noted: concentration not given. As for the experimental part:
Apoptosis-Necrosis assay: the frequencies of viable, apoptotic and necrotic cells were detected with the Annexin V-FITC apoptosis detection Kit I (BD Pharmingen, USA). Briefly, 5 x 10^4 cells were collected by centrifugation and cells resuspended in 500 µL of 1X binding buffer. Then, 5 µL of Annexin V-FITC and 5 µl of propidium iodide (PI 50 µg/ml) were added to the cultures and incubated 5 min in the dark. After that, cells fixed with 4% paraformaldehyde in phosphate buffered saline at 4 °C for 30 min. Cells from each well were stained according to the manufacturer's instructions and analyzed using a flow cytometer (CyFlow Cube 6, Partec, Germany). A computer system was used for data acquisition and analysis. Four different populations of cells are detected with the Annexin V-FITC kit: viable cells that are annexin negative and PI negative and express no fluorescence, early apoptotic cells that are annexin positive and PI negative and that express green fluorescence, late apoptotic/necrotic cells that are annexin positive and PI positive and that express green and orange fluorescence, necrotic cells that are annexin negative and PI positive and that express orange fluorescence (Majstorovic I, Vucevic D, Pavlovic B, Vasilijic S, Colic M. An anti-DEC-205 monoclonal antibody stimulates binding of thymocytes to rat thymic dendritic cells and promotes apoptosis of thymocytes. Cent Eur J Immunol. 2014; 39:411-418) .
BLA was considered as more able to protect the human neuron-like cells from Aβ1-42-induced necrosis and late apoptosis than LA or MEM.

Series [3] deals with differentiated SH-SY5Y cells. Kind of series: Apoptosis detection by Hoechst 33258 staining. The series is classed as cell-based, human. To be noted: 25 and 50 µM co-treatment, 20 µM Aβ1-42, 24 h. As for the experimental part:
Apoptosis detection by Hoechst 33258 staining: Hoechst 33258 staining was used to detect apoptotic nuclei. […] Then, cells fixed with 4% paraformaldehyde in phosphate buffered saline at 4 °C for 30 min. After washing cells with PBS, the nuclear DNAs were incubated with […] Hoechst 33258 fluorescent dye for 5 min at room temperature. Cells were observed and photographed under a fluorescence microscopy (Leica® DM IL LED).

Series [4] has as its system cultured human lymphocytes. Kind of series: SCE assay (genotoxicity). Format: cell-based. As for the experimental part:
as §1
SCE assay: to provide successive visualization of SCEs, 5-bromo-2-deoxyuridine was added at culture cells. Exactly 70 h and 30 min after beginning of the incubations, demecolcine ([…]) was added to the cultures. After hypotonic treatment (0.075 M KCl), followed by three repetitive cycles of fixation in methanol/acetic acid solution (3:1, v/v), centrifugation and re-suspension, the cell suspension was dropped onto chilled, grease-free microscopic slides, air-dried, aged for three days, and then differentially stained for the inspection of the SCE rate according to the fluorescence plus Giemsa (FPG) procedure. For each treatment condition, well-spread twenty-five second division metaphases containing 42-46 chromosomes per cell were scored and the values obtained were calculated as SCEs per cell.
The frequencies of sister chromatid exchanges (SCEs) with increasing BLA concentrations were investigated in cultured human lymphocytes.

In series [5] the test system is differentiated SH-SY5Y human neuroblastoma cells. The series can be described thus: MTT assay, neuroprotective effects against Aβ1-42 cytotoxicity. The series is classed as cell-based. The following applies: 24 h, read-out: increase in the cell viability (MTT assay). As for the experimental part: Cell cultures and differentiation: SH-SY5Y cell line were growth in DMEM:F12 (1:1) media including 10% FBS and 1% penicillin/streptomycin at 37 °C and 5% CO2 until cells reach confluence. Then, cells harvested via using trypsin/EDTA solution and transferred to 48 well plates. For differentiation, media were changed to supplemented media with 10 µg/mL retinoic acid and incubated for 5 days. Finally, media were changed into serum free media supplementing with both 10 µM retinoic acid and 25 ng/mL BDNF. Differentiated cells were determined under invert microscope and the cells were used within 10 days (Encinas M, Iglesias M, Liu Y, Wang H, Muhaisen A, Ceña V, Gallego C, Comella JX. Sequential treatment of SH-SY5Y cells with retinoic acid and brain-derived neurotrophic factor gives rise to fully differentiated, neurotrophic factor-dependent, human neuron-like cells. J. Neurochem. 2002; 75:991-1003 e Cheung YT, Lau WKW, Yu MS, Lai CSW, Yeung SC, So KF, Chang RCC. Effects of all-trans-retinoic acid on human SH-SY5Y neuroblastoma as in vitro model in neurotoxicity research. Neurotoxicol. 2009; 30:127-135).
(§2) Control cells (n = 6) were cultured under normal conditions. 1% Triton X, ascorbic acid (10 µM) and hydrogen peroxide (H2O2, 25 µM) were used as positive controls for cell viability, TAC and TOS analysis, respectively.
The cultures without BLA, MEM, or LA were studied as negative control group. 1% Triton-X was added to the culture media to provide negative control group. MTT reduction and LDH release observed after 24 h of Aβ1-42-exposure at 20 µM.

For series [6], the system named is differentiated SH-SY5Y cells. The series can be described thus: TAC and TOS analysis in cellular model of Alzheimer's disease. The following applies: co-treatment with Aβ1-42. Format: cell-based, human. As for the experimental part: TAC and TOS analysis: the automated TAC and TOS assays were carried out by commercially available kits (Rel Assay^(R) Diagnostics, Gaziantep, Turkey) on samples from the cultures.
as §2
Figure 5 and 6 show the effects of BLA and MEM treatments on TAC and TOS levels in cellular model of Alzheimer's disease, respectively.

Series [7] concerns the target T1, acetylcholinesterase (AChE) (Homo sapiens, UniProt P22303).
T1 construct: endogenous in cells
Kind of series: AChE activity in cellular model of Alzheimer's disease. The series is classed as cell-based. To be noted: with 20 µM Aβ1-42, 24 h. On the procedure: Determination of AChE activity: the activity of AChE within the cellular Alzheimer Disease's model was measured by the Acetylcholinesterase Assay Kit (Colorimetric) from Abcam^(R) (Cambridge, MA, USA) according to the manufacturer's recommended protocol.
AChE activity was evaluated in differentiated SH-SY5Y cells treated with BLA, LA, MEM (25 and 50 µM) or media alone for 24 h.

The test system of series [8] is differentiated SH-SY5Y human neuroblastoma cells. The series can be described thus: LDH assay, neuroprotective effects against Aβ1-42 cytotoxicity. To be noted: with 20 µM Aβ1-42, 24 h. Format: cell-based. On the procedure:
Cell cultures and differentiation: SH-SY5Y cell line were growth in DMEM:F12 (1:1) media including 10% FBS and 1% penicillin/streptomycin at 37 °C and 5% CO2 until cells reach confluence. Then, cells harvested via using trypsin/EDTA solution and transferred to 48 well plates. For differentiation, media were changed to supplemented media with 10 µg/mL retinoic acid and incubated for 5 days. Finally, media were changed into serum free media supplementing with both 10 µM retinoic acid and 25 ng/mL BDNF.
(§3) Cytotechnol. 2015; 67:299-309.
as §2
The cultures without BLA, MEM, or LA were studied as negative control group. 1% Triton-X was added to the culture media to provide negative control group.

In series [9] the test system is SHSY-5Y human neuroblastoma cell line. Kind of series: Antitumor activity, MTT and LDH assays. The series is classed as cell-based. The following applies: dose-dependent. As for the experimental part: as §3
Antitumor activity of BLA and MEM was tested on SHSY-5Y human neuroblastoma cell line using MTT and LDH assays. Cells were grown to near-confluency before treatment. Growth of the cell line was inhibited by both drug application in a dose-dependent manner.
(Formazan colour is commonly taken as a measure of viable cells.)

The conditions of series [10]: cited from earlier work.

As usually defined, the viability is a read-out of living cells in per cent, often relative to untreated cells.

T1 sequence (P22303 32-614): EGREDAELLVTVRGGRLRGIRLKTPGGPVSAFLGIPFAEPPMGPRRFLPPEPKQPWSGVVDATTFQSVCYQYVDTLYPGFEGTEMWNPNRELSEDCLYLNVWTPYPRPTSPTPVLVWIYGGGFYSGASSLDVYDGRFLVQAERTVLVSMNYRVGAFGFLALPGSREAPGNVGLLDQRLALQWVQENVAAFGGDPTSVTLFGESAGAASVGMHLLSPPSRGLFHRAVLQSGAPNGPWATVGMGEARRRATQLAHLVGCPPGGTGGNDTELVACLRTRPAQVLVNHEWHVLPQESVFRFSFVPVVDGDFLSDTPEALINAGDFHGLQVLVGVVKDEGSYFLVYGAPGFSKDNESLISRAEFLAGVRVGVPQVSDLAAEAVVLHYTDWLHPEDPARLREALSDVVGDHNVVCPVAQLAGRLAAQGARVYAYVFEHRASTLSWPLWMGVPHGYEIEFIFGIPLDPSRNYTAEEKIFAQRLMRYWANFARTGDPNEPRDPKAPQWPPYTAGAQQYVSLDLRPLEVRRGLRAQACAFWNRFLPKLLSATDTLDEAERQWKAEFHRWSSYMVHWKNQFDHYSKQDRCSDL

For `CO[C@@]12[C@H](COC(N)=O)C3=C(C(=O)C(C)=C(N)C3=O)N1C[C@@H]1N[C@@H]12` [MMC, mitomycin], the 8-OH-dG concentrations entry in series [1] (10^-7 M, 24 h, positive control) is recorded as “significantly increased”.
As for `CC12CC3CC(C)(C1)CC(N)(C3)C2` [MEM, memantine], in [2], the “decreased the necrotic cell percentage by Aβ1-42” value was 65.97%. Besides, in series [3], the “nuclear integrity and apoptosis by Aβ1-42 (Hoechst 33258)” value is “protected nuclear integrity and inhibited apoptosis”. Also, the “frequencies of sister chromatid exchanges (SCEs)” value in [4] is given as “not higher than the control group”. The viability at 25 µM in series [5] was found to be 17.3%. The viability at 50 µM in series [5] was determined as 19.4%. Further, in [5], the viability at 100 µM was 17.1%. Moreover, the 8-OH-dG levels result in series [1] is given as “not increased”. Also, in series [6], the “Aβ1-42-induced decreases of TAC and increases of TOS levels” value is reported as “modulated”. Moreover, the “reduced Aβ-induced AChE activity” value in series [7] (25 µM) came to 14.57%; in series [7] (50 µM), 19.47%. The figures for the “increase in the cell viability (inhibited LDH release)” value in series [8] (25 µM), in series [8] (50 µM) and in [8] (100 µM) were 56.81%, 59.15% and 57.28%, respectively. Besides, in series [9], the “antitumor effects (growth inhibition)” value is “moderate antitumor effects”.
For the compound `N[C@@H](Cc1ccc(B(O)O)cc1)C(=O)O` [p-borophenyalanine], in [10], the “safe for humans at doses up to” value is listed as “up to 900 mg/kg”.
